Holding throughout (assay type): in vivo, mouse
One assay deals with UCP1 mRNA. Kind of assay: Real time PCR, UCP1 mRNA in brown adipose tissues, db/db mice. The conditions noted are these: after 5 week-administration, 1.1 and 2.7 mg/dl in drinking water. Here is the method: 5 week-old male C57BL/KsJ-db/db mice (db/db mice: body weight 19 to 25 g, Japan SLC, Inc.) were purchased and individually fed in tip cages. For the db/db mice, normal pellet diet (CE-2) was administered under free water intake and free food intake. A body weight and a food intake amount over 24 hours were measured every day from the start of feeding. On day 3 after the start of feeding, blood was taken from an orbit after 6 hour-fasting and a blood glucose level and a blood insulin concentration were measured. […] A food intake amount and a body weight were measured over time during the period of 5 week-administration of (±)-baclofen, blood was taken after the end of the 5-week administration, and the db/db mice were sacrificed by cervical luxation. […] The epididymal white adipose tissues and subcutaneous white adipose tissues were measured in weights, and then fixed in 4% formaldehyde and preserved at 4° C.
RNA was taken out from the brown adipose tissues preserved at −80° C., and expression of a UCP-1 mRNA was examined in the real time quantitative […] method by using ABI PRISM (registered trademark) 7700 Sequence Detection System.
A general note: Quantitative PCR measures a nucleic acid by following its amplification.

Another assay relates to lean mice. Kind of assay: Food intake amount and body weight, 5 week-continuous oral administration, non-obese lean mice. As to conditions: lean mice (normal diet); oral 5 weeks; (±)-baclofen 5 mg/kg/day, SKF97541 0.3 mg/kg/day, 3-APPA 5 mg/kg/day. The method, then:
5 week-old male C57BL/6N mice (body weight 17 to 20 g, CLEA Japan, Inc.) were purchased and individually fed in tip cages. To the mice, normal pellet diet (CE-2) was administered under free water intake and free food intake. A body weight and a food intake amount over 24 hours were measured every day from the start of feeding. On day 3 after the start of feeding, blood was taken from an orbit after 6 hour-fasting and a blood glucose level and a blood insulin concentration were measured. The mice were divided into a control group and a baclofen treated group (10 mice per each group) so that a body weight, a 24 hour-food intake amount, a blood glucose level, and a blood insulin concentration were equal, and diet induced-obesity (DIO) was started to be induced by administration of high fat diet (High Fat Diet 32, energy fat ratio 60%, CLEA Japan, Inc.) (DIO mice). At the same time as the start of administering the high fat diet, (±)-baclofen was dissolved in drinking water and 5 week-continuous oral administration was started in a dosage of 5 mg per 1 kg of a body weight in 1 day (5 mg/kg/day). A food intake amount and a body weight were measured over time during the 5 week-administration period. (±)-baclofen (5 mg/kg/day) was orally administered also to C57BL/6N mice (lean mice) that are non-obese mice to which normal diet was administered in the same manner as described above, and a food intake amount and a body weight were measured over time.
5 week-old male C57BL/6N mice (body weight 17 to 20 g, CLEA Japan, Inc.) were purchased and individually fed in tip cages. Normal pellet diet (CE-2) was administered to the mice under free water intake and free food intake. A body weight and a food intake amount over 24 hours were measured every day from the start of feeding. On day 3 after the start of feeding, blood was taken from an orbit after 6 hour-fasting and a blood glucose level and a blood insulin concentration were measured. The mice were divided into a control group, an SKF97541 treated group and a 3-APPA treated group (10 mice per each group) so that a body weight, a 24 hour-food intake amount, a blood glucose level, and a blood insulin concentration were equal, and diet induced-obesity (DIO) was started to be induced by administration of high fat diet (High Fat Diet 32, energy fat ratio 60%, CLEA Japan, Inc.) (DIO mice). At the same time as the start of administering the high fat diet, SKF97541 (0.3 mg/kg/day) or 3-APPA (5 mg/kg/day) was dissolved in drinking water and 5 week-continuous oral administration was started. A food intake amount and a body weight were measured over time during the 5 week-administration period. SKF97541 (0.3 mg/kg/day) or 3-APPA (5 mg/kg/day) was orally administered also to C57BL/6N mice (lean mice) to which normal diet was administered in the same manner as described above, and a food intake amount and a body weight were measured over time.

A further assay relates to POMC mRNA. Kind of assay: In situ hybridization, POMC mRNA in hypothalamic arcuate nucleus, DIO mice. The conditions noted are these: (±)-baclofen oral 5 weeks. The method, then:
A hypothalamic section with a thickness of 12 μm was prepared from the brain preserved at −80° C. by using a cryostat and stuck to a MAS coat slide and then in situ hybridization was performed. For a label of NPY mRNA and POMC mRNA probes, ^35S was used. The hypothalamic section was pretreated by using triethanolamine, ethanol and the like, and then 12 hour-hybridization was performed at 55° C. After the hybridization, the hypothalamic section was treated by washing with SSC, RNase, etc. After development to a film, the mRNA expression strength was assayed by using the NIH image.
(±)-baclofen was orally administered to DIO mice for 5 weeks according to the above method, and then the DIO mice were sacrificed. A brain was surgically removed, and changes in expression amounts of NPY mRNA and POMC mRNA in the hypothalamic arcuate nucleus were examined by using an in situ hybridization method.

With `NCC(CC(=O)O)c1ccc(Cl)cc1` (racemic) [(±)-baclofen, (RS)-4-amino-3-(4-chlorophenyl)butanoic acid], the “UCP1 mRNA expression in brown adipose tissues” value in the assay on UCP1 mRNA is recorded as “Significant increases”. In addition, in the assay with lean mice, the body weight entry is recorded as “did not give significant effects” and the food intake amount entry is “did not give significant effects”. Besides, the “expression of POMC mRNA in the hypothalamic arcuate nucleus” value in the assay on POMC mRNA is reported as “significantly increased”.

The values are drawn from patent US20100197789A1, “ANTI-OBESITY AGENT AND USE THEREOF” (National University Corporation Nagoya University, priority 2006, published 2010).
